Measurements as given in patent US8455497B2, “Inhibitors of aspartyl protease” (Vertex Pharmaceuticals Incorporated, priority 1999, dated 2013).
Where two headings read alike, the source gives them in different places.

How the values were obtained:
[1] = system: EP13 multi protease inhibitor resistant virus; experiment: Anti-viral activity against resistant virus EP13 in MT4 cells; format: cell-based, HIV-1
Summary of the method: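 MT4 cells infected for 1 h at 37 °C, MOI 100×TCID50, then diluted 6-fold onto pre-diluted compound and cultured 5 days (5% CO2). Viable-cell DNA content estimated by propidium iodide. EP13 carries protease mutations M46I, L63P, A71V, V82F/L, I84V, no RT mutations.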

[2] = system: D545701-14 multi protease inhibitor resistant virus; experiment: Anti-viral activity against resistant virus D545701-14 in MT4 cells; format: cell-based, HIV-1
HIV-1 (strain IIIB) = experiment: Antiviral activity assay in MT4 cells (propidium iodide based); format: cell-based
Summary of the method: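 Compound serial dilutions in RPMI/FCS received MT4 cells pre-infected 1 hr at 37°C with HIV-1 IIIB at 100×TCID50. After 5 days' culture and Nonidet-40 lysis, well DNA content was measured by propidium iodide dye; mock-infected cells served as control.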

[3] = EP13 multi protease inhibitor resistant virus, MT4 cells, read-out: EP13 mutant IC50
[4] = D545701-14 multi protease inhibitor resistant virus, MT4 cells, read-out: D545701-14 mutant - IC50
[5] = wild type HIV-1 virus, MT4 cells, read-out: Wildtype virus - IC50
[6] = Human immunodeficiency virus 1, MT4, read-out: EP13 mutant IC50, EP13 multi protease inhibitor resistant virus, MT4 cells
[7] = Human immunodeficiency virus 1, MT4, read-out: D545701-14 mutant - IC50, D545701-14 multi protease inhibitor resistant virus, MT4 cells
[8] = Human immunodeficiency virus 1, MT4, 120 h, MT-4 cells, HIV-1 strain IIIB, 5 days, read-out: IC50 (Antiviral Activity of Compounds of the Invention)
[9] = Human immunodeficiency virus 1, IIIB, wild type HIV-1 virus, MT4 cells, read-out: Wildtype virus - IC50

With `CC(C)CN(C[C@@H](O)[C@H](Cc1ccc(OCc2cccc(C#N)c2)cc1)NC(=O)O[C@H]1CO[C@H]2OCC[C@H]21)S(=O)(=O)c1ccc2c(c1)OCO2` [Compound 367, (3R,3aS,6aR)-Hexahydrofuro[2,3-b]furan-3-yl-N (1S,2R)-1-[4-(3-cyanobenzyloxy)-benzyl]-3-i-butyl-[(3,4-methylenedioxyphenyl)sulfonyl]-amino-2-hydroxypropyl-carbamate] the IC50 [1, 3] was less than 1 nM, the IC50 [2, 4] was 1 to 10 nM and the IC50 (HIV-1 (strain IIIB); [5]) was less than 1 nM.
`Cc1cc(COc2ccc(C[C@H](NC(=O)O[C@H]3CO[C@H]4OCC[C@H]43)[C@H](O)CN(CC(C)C)S(=O)(=O)c3ccc4c(c3)OCO4)cc2)no1` [Compound 55, Bis-THF Methylenedioxybenzenesulfonamide 3-methyl-5-methylisoxazole Tethered Product] was tested, and the IC50 [1, 6] was 1 to 10 nM, the IC50 [2, 7] was 1 to 10 nM and the IC50 (HIV-1 (strain IIIB); [8]) was less than 1 nM.
`O=C(N[C@@H](Cc1ccc(OCc2ccccc2)cc1)[C@H](O)CN(CC1CCCC1)S(=O)(=O)c1ccc2c(c1)OCO2)O[C@H]1CO[C@H]2OCC[C@H]21` [Compound 395, (3R,3aS,6aR)-hexahydrofuro[2,3-b]furan-3-yl (1S,2R)-3-[(1,3-benzodioxol-5-ylsulfonyl) (cyclopentylmethyl)amino]-1-[4-(benzyloxy)benzyl]-2-hydroxypropylcarbamate] was tested, and the IC50 [1, 6] was 1 to 10 nM, the IC50 [2, 7] was 1 to 10 nM and the IC50 (HIV-1 (strain IIIB); [9]) was 1 to 10 nM.
Compound `CC(C)CN(C[C@@H](O)[C@H](Cc1ccc(OCCCCNC(=O)OC(C)(C)C)cc1)NC(=O)O[C@H]1CO[C@H]2OCC[C@H]21)S(=O)(=O)c1ccc2c(c1)OCO2` [Compound 223, (3R,3aS,6aR)-hexahydrofuro[2,3-b]furan-3-yl (1S,2R)-3-(1,3-benzodioxol-5-ylsulfonyl)(isobutyl)amino-1-(4-{4-[(tert-butoxycarbonyl)amino]butoxy}benzyl)-2-hydroxypropylcarbamate] has an IC50 [1, 6] of 1 to 10 nM, an IC50 [2, 7] of 1 to 10 nM and an IC50 (HIV-1 (strain IIIB); [9]) of 1 to 10 nM.
`CC(C)CN(C[C@@H](O)[C@H](Cc1ccc(Oc2c(C(=O)O)cc([N+](=O)[O-])cc2[N+](=O)[O-])cc1)NC(=O)O[C@H]1CO[C@H]2OCC[C@H]21)S(=O)(=O)c1ccc2c(c1)OCO2` [Compound 334, 2-(4-{(2S,3R)-2-({[(3R,3aS,6aR)-hexahydrofuro[2,3-b]furan-3-yloxy]carbonyl}amino)-4-[(1,3-benzodioxol-5-ylsulfonyl)(isobutyl)amino]-3-hydroxybutyl}phenoxy)-3,5-dinitrobenzoic Acid] gave an IC50 [1, 6] of 1 to 10 nM, an IC50 [2, 7] of 1 to 10 nM and an IC50 (HIV-1 (strain IIIB); [9]) of 1 to 10 nM.
For `CC(C)CN(C[C@@H](O)[C@H](Cc1ccc(OCCNC(=O)OC(C)(C)C)cc1)NC(=O)O[C@H]1CO[C@H]2OCC[C@H]21)S(=O)(=O)c1ccc2c(c1)OCO2` [Compound 219, (3R,3aS,6aR)-hexahydrofuro[2,3-b]furan-3-yl (1S,2R)-3-[(1,3-benzodioxol-5-ylsulfonyl)(isobutyl)amino]-1-(4-{2-[(tert-butoxycarbonyl)amino]ethoxy}benzyl)-2-hydroxypropylcarbamate], the IC50 [1, 6] was 1 to 10 nM, the IC50 [2, 7] was 1 to 10 nM and the IC50 (HIV-1 (strain IIIB); [9]) was 1 to 10 nM.
Work on `CC(C)CN(C[C@@H](O)[C@H](Cc1ccc(OC(N)=O)cc1)NC(=O)O[C@H]1CO[C@H]2OCC[C@H]21)S(=O)(=O)c1ccc2c(c1)OCO2` [Compound 312, (3R,3aS,6aR)-Hexahydrofuro[2,3-b]furan-3-yl (1S,2R)-1-{4-[(aminocarbonyl)oxy]benzyl}-3-[(1,3-benzodioxol-5-ylsulfonyl)(isobutyl)amino]-2-hydroxypropylcarbamate] yielded an IC50 [1, 6] of 1 to 10 nM, an IC50 [2, 7] of 10 to 100 nM and an IC50 (HIV-1 (strain IIIB); [9]) of 10 to 100 nM.
For `CC(=O)NCCCCOc1ccc(C[C@H](NC(=O)O[C@H]2CO[C@H]3OCC[C@H]32)[C@H](O)CN(CC(C)C)S(=O)(=O)c2ccc3c(c2)OCO3)cc1` [Compound 230], the IC50 [1, 3] was 1 to 10 nM, the IC50 [2, 4] was 1 to 10 nM and the IC50 (HIV-1 (strain IIIB); [5]) was 10 to 100 nM.
With `CC(C)CN(C[C@@H](O)[C@H](Cc1ccc(OCCNC(=O)N(C)C)cc1)NC(=O)O[C@H]1CO[C@H]2OCC[C@H]21)S(=O)(=O)c1ccc2c(c1)OCO2` [Compound 253] the IC50 [1, 3] was 1 to 10 nM, the IC50 [2, 4] was 1 to 10 nM and the IC50 (HIV-1 (strain IIIB); [5]) was 10 to 100 nM.
Compound `CC(C)CN(C[C@@H](O)[C@H](Cc1ccc(OCCCC(=O)N(C)C)cc1)NC(=O)OC1CO[C@H]2OCC[C@@H]12)S(=O)(=O)c1ccc2c(c1)OCO2` (stereo in doubt) [Compound 287, (3R,3aS,6aR)-hexahydrofuro[2,3-b]furan-3-yl (1S,2R)-3-[(1,3-benzodioxol-5-ylsulfonyl)(isobutyl)amino]-1-{4-[4-(dimethylamino)-4-oxobutoxy]benzyl}-2-hydroxypropylcarbamate] has an IC50 [1, 6] of 1 to 10 nM, an IC50 [2, 7] of 1 to 10 nM and an IC50 (HIV-1 (strain IIIB); [9]) of 1 to 10 nM.
In the case of `CC(C)CN(C[C@@H](O)[C@H](Cc1ccc(OCCCCN/C(=N/C#N)Oc2ccccc2)cc1)NC(=O)O[C@H]1CO[C@H]2OCC[C@H]21)S(=O)(=O)c1ccc2c(c1)OCO2` [Compound 263, (3R,3aS,6aR)-hexahydrofuro[2,3-b]furan-3-yl (1S,2R)-3-[(1,3-benzodioxol-5-ylsulfonyl)(isobutyl)amino]-1-[4-(4{[(E and/or Z)-(cyanoimino)(phenoxy)methyl]amino}butoxy)benzyl]-2-hydroxypropylcarbamate], the IC50 [1, 6] is reported as 1 to 10 nM, the IC50 [2, 7] is reported as 1 to 10 nM and the IC50 (HIV-1 (strain IIIB); [9]) is reported as 1 to 10 nM.
Work on `COC(=O)CCCOc1ccc(C[C@H](NC(=O)OC2CO[C@H]3OCCC23)[C@H](O)CN(CC(C)C)S(=O)(=O)c2ccc3c(c2)OCO3)cc1` (stereo partly drawn) [Compound 303, Methyl 4-(4-{(2S,3R)-2-({[3R,3aS,6aR)-hexahydrofuro[2,3-b]furan-3-yloxy]carbonyl}amino)-4-[(1,3-benzodioxol-5-ylsulfonyl)(isobutyl)amino]-3-hydroxybutyl}phenoxy) butanoate] yielded an IC50 [1, 6] of 10 to 100 nM, an IC50 [2, 7] of 10 to 100 nM and an IC50 (HIV-1 (strain IIIB); [9]) of 10 to 100 nM.
With `Cc1nc(COc2ccc(C[C@H](NC(=O)O[C@H]3CO[C@H]4OCC[C@H]43)[C@H](O)CN(CC(C)C)S(=O)(=O)c3ccc4c(c3)OCO4)cc2)cs1` [Compound 368] the IC50 [1, 3] was less than 1 nM, the IC50 [2, 4] was 1 to 10 nM and the IC50 (HIV-1 (strain IIIB); [5]) was less than 1 nM.
For `CC(C)CN(C[C@@H](O)[C@H](Cc1ccc(OCCO)cc1)NC(=O)O[C@H]1CO[C@H]2OCC[C@H]21)S(=O)(=O)c1ccc2c(c1)OCO2` [Compound 322, (3R,3aS,6aR)-Hexahydrofuro[2,3-b]furan-3-yl (1S,2R)-3-[(1,3-benzodioxol-5-ylsulfonyl)(isobutyl)amino]-2-hydroxy-1-[4-(2-hydroxyethoxy)benzyl]propylcarbamate], the IC50 [1, 6] was 1 to 10 nM, the IC50 [2, 7] was 1 to 10 nM and the IC50 (HIV-1 (strain IIIB); [9]) was 1 to 10 nM.
With `CC(C)CN(C[C@@H](O)[C@H](Cc1ccc(OCCCCN)cc1)NC(=O)O[C@H]1CO[C@H]2OCC[C@H]21)S(=O)(=O)c1cccc(N)c1` [Compound 292] the IC50 [1, 6] was 10 to 100 nM, the IC50 [2, 7] was 10 to 100 nM and the IC50 (HIV-1 (strain IIIB); [9]) was 10 to 100 nM.
Work on `CC(C)CN(C[C@@H](O)[C@H](Cc1ccc(OCCN/C(=N/C#N)Oc2ccccc2)cc1)NC(=O)O[C@H]1CO[C@H]2OCC[C@H]21)S(=O)(=O)c1ccc2c(c1)OCO2` [Compound 262, (3R,3aS,6aR)-hexahydrofuro[2,3-b]furan-3-yl (1S,2R)-3-[(1,3-benzodioxol-5-ylsulfonyl)(isobutyl)amino]-1-[4-(2-{[(E and/or Z)-(cyanoimino)(phenoxy)methyl]amino}ethoxy)benzyl]-2-hydroxypropylcarbamate] yielded an IC50 ([1]; Human immunodeficiency virus 1, MT4, read-out: EP13 mutant IC50) of 1 to 10 nM, an IC50 ([2]; Human immunodeficiency virus 1, MT4, read-out: D545701-14 mutant - IC50) of 1 to 10 nM and an IC50 (HIV-1 (strain IIIB); [9]) of 1 to 10 nM.
`CC(C)CN(C[C@@H](O)[C@H](Cc1ccc(OCCCN2CCCC2)cc1)NC(=O)O[C@H]1CO[C@H]2OCC[C@H]21)S(=O)(=O)c1ccc2c(c1)OCO2` [Compound 280, (3R,3aS,6aR)-hexahydrofuro[2,3-b]furan-3-yl (1S,2R)-3-[(1,3-benzodioxol-5-ylsulfonyl)(isobutyl)amino]-2-hydroxy-1-{4-[3-(1-pyrrolidinyl)propoxy]-3-benzyl}propylcarbamate] gave an IC50 [1, 3] of 1 to 10 nM, an IC50 [2, 4] of 1 to 10 nM and an IC50 (HIV-1 (strain IIIB); [5]) of 10 to 100 nM.
`CC(C)CN(C[C@@H](O)[C@H](Cc1ccc(OCc2noc(C(C)(C)C)n2)cc1)NC(=O)O[C@H]1CO[C@H]2OCC[C@H]21)S(=O)(=O)c1ccc2c(c1)OCO2` [Compound 370] showed an IC50 [1, 6] of 1 to 10 nM, an IC50 [2, 7] of 1 to 10 nM and an IC50 (HIV-1 (strain IIIB); [9]) of less than 1 nM.
Compound `CC(C)CN(C[C@@H](O)[C@H](Cc1ccc(OCc2ccccn2)cc1)NC(=O)O[C@H]1CO[C@H]2OCC[C@H]21)S(=O)(=O)c1ccc2c(c1)OCO2` [Compound 53, Bis-THF Methylenedioxybenzenesulfonamide 2-picolyl Tethered Product] has an IC50 [1, 6] of 1 to 10 nM, an IC50 [2, 7] of 1 to 10 nM and an IC50 (HIV-1 (strain IIIB); [9]) of 1 to 10 nM. The IC50 (HIV-1 (strain IIIB); [8]) was 1 to 10 nM.
With `N#CCOc1ccc(C[C@H](NC(=O)O[C@H]2CO[C@H]3OCC[C@H]32)[C@H](O)CN(CC2CCCC2)S(=O)(=O)c2ccc3c(c2)OCO3)cc1` [Compound 397, (3R,3aS,6aR)-hexahydrofuro[2,3-b]furan-3-yl (1S,2R)-3-[(1,3-benzodioxol-5-ylsulfonyl)(cyclopentylmethyl)amino]-1-[4-(cyanomethoxy)benzyl]-2-hydroxypropylcarbamate] the IC50 [1, 6] was 1 to 10 nM, the IC50 [2, 7] was 1 to 10 nM and the IC50 (HIV-1 (strain IIIB); [9]) was 10 to 100 nM.
